Results: patent US20250011686A1, “BIODEGRADABLE CHELATING AGENTS AND METHODS FOR FABRIC CARE” (The Procter & Gamble Company, priority 2023, published 2025)

Experiments:
Type in all cases: physicochemical
[1] = pKa of chelating agent (Table 1); details: successive pKa values; for catechin (A)/(B)
Description: Chelation is a type of bonding of ions and molecules to metal ions. It involves the formation or presence of two or more separate coordinate bonds between a ligand and a metal atom. Without being bound by theory, the stain removal effectiveness of a composition comprising one or more chelating agents may depend at least in part on the ability of the chelating agent(s) to bind to iron, which may be present in some stains, such as fruit or beverage stains. Several factors may impact a chelating agent's ability to bind to iron. These factors may include the pKa of the chelating agent compared to the wash pH, and the affinity of the chelating agent to bind with other metals, materials, or compositions in the wash.
Various embodiments may provide or employ a composition that comprises one or more chelating agents having a pKa that is less than the wash pH.

[2] = Calcium binding efficiency, logK(β110) (Table 1); details: one metal, one ligand, no protons
Description: (§1) The binding efficiencies may be expressed as a binding constant. A binding constant (also called formation constant or stability constant) is an equilibrium constant for the formation of a complex in solution. It is a measure of the strength of the interaction between the reagents that come together to form the complex. As an example, various stains may comprise catechins as shown in Formula 13. In Table 1, the reaction between metals and ligands is described in terms of log K(β110). In this context, K, is the equilibrium constant for the reaction between ligands and metals. The higher K, the more metal is bound. This is illustrated in the following example. β, represents the binding efficiency and receives some subscripts (βmlh) to indicate how many metals (m), ligands (l), and protons (h) respectively are involved.

[3] = Iron binding efficiency, logK(β110) (Table 1); details: one metal, one ligand, no protons
Description: as §1

Ca^2+ logK(β110) (calcium binding efficiency) ([2]; listed as catechins) | Fe (III) logK(β110) (iron binding efficiency) ([3]; listed as catechins) | Compound | pKa [1] | Ca^2+ logK(β110) (calcium binding efficiency) [2] | Fe (III) logK(β110) (iron binding efficiency) [3]
about 3.5 | about 19.2 | Oc1cc(O)c2c(c1)OC(c1ccc(O)c(O)c1)C(O)C2 (stereo not shown) [Catechin] | 8.7 | 3.5 | 19.2
 |  | CC(O)(P(=O)(O)O)P(=O)(O)O [HEDP, 1-Hydroxyethylidene-1,1-diphosphonic acid, reference compound] |  | 6.8 | 14.1
 |  | CC(C)c1cccc(=O)c(O)c1 [Hinokitiol, 2-Hydroxy-6-(propan-2-yl)cyclohepta-2,4,6-trien-1-one] | ~7 | 2.2 | 12.9
 |  | O=c1cccccc1O [Tropolone, 2-Hydroxycyclohepta-2,4,6-trien-1-one] | 6.7 | 3.1 | 10.5
